Reference: patent US20240238251A9, “A Composition Comprising Heterocyclic Compounds, Preparation Method and Application Thereof” (SHANGHAI YASHENG PHARMACEUTICAL TECHNOLOGY CO., LTD., priority 2020, published 2024)

Test: Pharmacokinetics after oral administration in dogs
Type: in vivo, beagle dogs
Method: After fully grinding and mixing the samples with PEG400 (the concentration in the sample solution was 5%), a small amount (about 2 ml) of 0.2% HPMC aqueous solution was added to grind into a uniform paste until there were no large particles. Under the condition of continuous grinding, 0.2% HPMC aqueous solution was added to a sufficient amount and maintained stirring (800 RPM) for 5 minutes. After sealing the sample solution container with sealing film, it was placed in the ultrasonic instrument (40 kHz) for ultrasonic for 20 minutes (to avoid the rise of ultrasonic medium water temperature during ultrasonic process, the water temperature was controlled within 40° C.); Stopped the ultrasound, mixed the suspension evenly before use (stirring for about 3 minutes), and then sampled immediately (the concentration of the sample was 6 mg/ml).
Test method: three male beagle dogs were selected and divided into test article 1 (APG-115 particles) group and test article 2 (APG-115 hydrate) group. Each group received single oral capsule administration: after the administration of test article 1, after an 8-day cleaning period, the group name was changed to test article 2, and so on.
Blood samples were collected and plasma was separated at 0.5, 1.0, 2.0, 4.0, 6.0, 10, 24, 48, 72, 96, 120, 144 and 168 hours before and after each round of administration. All plasma samples were mailed to the client for testing. The concentration of APG-115 in dog plasma was analyzed by LC-MS/Ms. The lower limit of quantification of the method was 50 ng/ml. The non compartmental model method (NCA) of the metabolic kinetic data analysis software winnonlin 8.0.0.3176 was used to analyze the plasma concentration data and calculate the pharmacokinetic parameters. See table 21 to evaluate the kinetic characteristics of APG-115 in animals after administration.

[1] = dog, plasma, male beagle dogs, single oral administration, Mean
[2] = male beagle dogs, single oral administration, Mean

AUC(0-inf) [1]: 33400 ng·h/mL | AUC(0-t) [1]: 4580 ng·h/mL | Cmax [1]: 136 ng/mL | MRT [1]: 31.4 h | Tmax [1]: 6 h | half-life [1]: 346 h | exposure in dogs (dogs, oral, in words): very low | CL [2]: 1.013 mL/min/kg | Vd [2]: 29.08877 L/kg
Compound: CCN1[C@@H](C(=O)NC23CCC(C(=O)O)(CC2)CC3)[C@H](c2cccc(Cl)c2F)[C@]2(C(=O)Nc3cc(Cl)ccc32)C12CCCCC2 [APG-115 hydrate]
